Assay results from patent US7732478B2, “Methods for facilitating metabolic control” (The Trustees of Columbia University in The City of New York, priority 2005, dated 2010).

Key:
[1] = tested on: circulating levels of TNF-α, and IL-6; conditions: infusion of glutathione; healthy and impaired glucose tolerance individuals; cited from earlier work
circulating TNF = experiment: Circulating TNF level (blood TNF alpha immunoassay) after ketorolac oral rinse; format: in vivo, human; conditions: oral rinse containing 0.1% Ketorolac twice daily for 6 months; type 2 diabetes and chronic periodontitis subjects
Experimental: Subjects are selected and divided into different groups as described in Examples 1 and 2. An oral rinse containing 0.1% Ketorolac was administered twice daily for 6 months to reduce the level of IL-1β in GCF in the subjects (see, Cavanaugh et al., Coordinate production of PGE2 and IL-1 beta in the gingival crevicular fluid of adults with periodontitis: its relationship to alveolar bone loss and disruption by twice daily treatment with ketorolac tromethamine oral rinse. J. Periodontal Res. 33:75-82, 1998). GCF samples are collected following the procedures of example 3 and the level of IL-1β in GCF is determined as described in example 5. Circulating TNF level is determined by measuring blood TNF level using the TNF alpha immunoassay kit (Assay Designs Inc., Ann Arbor, Mich.) following the manufacturer's instructions.

IL-1β in GCF [2] = experiment: Level of IL-1β in gingival crevicular fluid (sandwich ELISA) after ketorolac oral rinse; format: in vivo, human; conditions: Ketorolac treatment, Example 11
Text: The clinical evaluation was preceded by collection of GCF, as previously described (Lamster et al., A comparison of 4 methods of data presentation for lysosomal enzyme activity in gingival crevicular fluid. J. Clin. Periodontol., 15:347-52, 1988; Lamster et al., Correlation analysis for clinical and gingival crevicular fluid parameters at anatomically related gingival sites. J. Clin. Periodontol., 18:272-77, 1991), from the mesiolingual and mesiobuccal surfaces of the first molar tooth in each quadrant. Where the first molar was absent, the second molar was sampled. If both the first and second molar were missing, the second premolar was sampled. If there were no posterior teeth in a quadrant, no sample was taken from that quadrant.
Briefly, teeth were air-dried and isolated with cotton rolls, supragingival plaque was gently removed, and GCF was sampled with precut methylcellulose filter paper strips for 30 sec. Strips were measured for fluid volume with a calibrated Periotron 6000 (Interstate Drug Exchange, Amityville, N.Y.), then removed to separate microcentrifuge tubes containing 50 μl of phosphate-buffered saline (Tween 20). […] Following elution, each GCF sample was analyzed separately.
GCF samples were analyzed for IL-1β using a commercially-available enzyme-linked immunosorbant assay, Multikine Kit (Cistron Biotechnology, Pine Brook, N.J.). […]

serum glucose = experiment: Serum glucose levels as indicator of metabolic control; format: in vivo, human; conditions: Ketorolac treatment, Example 11
Experimental: (§1) Glycated hemoglobin (HbA1c) levels were measured from freshly drawn anticoagulated whole blood using an automated affinity chromatography system (BioRad Micromat II, Hercules, Calif.). Serum glucose was determined by the glucose oxidase method (Roche Diagnostics, Basel, CH). […] The study is performed as described in example 8. HbA1c levels and serum glucose levels, which are used as indicators of metabolic control, are measured as described in example 6.

IL-1β in GCF [3] = conditions: used as an oral rinse; cited from earlier work
HbA1c = HbA1c levels as indicator of metabolic control; format: in vivo, human; conditions: Ketorolac treatment, Example 11
Experimental: as §1

Row | Compound | circulating cytokines following a glucose bolus administration [1] | level of serum TNF (circulating TNF) | levels of IL-1β in GCF (IL-1β in GCF [2]) | serum glucose levels (serum glucose) | GCF IL-1β in the oral cavity (IL-1β in GCF [3]) | HbA1c levels (HbA1c)
1 | N[C@@H](CCC(=O)N[C@@H](CS)C(=O)NCC(=O)O)C(=O)O [glutathione] | no increase of cytokines | – | – | – | – | –
2 | O=C(c1ccccc1)c1ccc2n1CCC2C(=O)O (stereo not drawn) [Ketorolac] | – | significant reduction | reducing the levels of IL-1β in GCF | decline | reduce GCF IL-1β | decline of HbA1c levels
